In publication PMC10663540, “Structure-based discovery of dual pathway inhibitors for SARS-CoV-2 entry” (Nature Communications, 2023):
Values joined by “and” are separate entries in the source; they are usually repeats but may differ in a detail not shown here. Equal values may be shown once. Read-outs that look alike come from different tables or passages of the source.

Tests used:
SARS-CoV-2 Delta variant = assay: microbe, parasite or virus in culture; assay type: cell-based
[1] = test system: SARS-CoV-2 Omicron BA.2 variant; assay: microbe, parasite or virus in culture; assay type: cell-based; settings: for EC50: Severe acute respiratory syndrome coronavirus 2
[2] = Severe acute respiratory syndrome coronavirus 2, Calu-3; read-out: Antiviral efficacy EC50 (95% CI)
[3] = Calu-3, Omicron BA.2, […], read-out: Antiviral efficacy EC50 (95% CI)
[4] = Severe acute respiratory syndrome coronavirus 2, Calu-3, read-out: Antiviral efficacy EC50 (95% CI)
[5] = Severe acute respiratory syndrome coronavirus 2, Calu-3, read-out: Inhibition: Delta
[6] = Calu-3, Omicron BA.2, one representative replicate, before reprocessing, read-out: EC50, original manuscript version
[7] = Calu-3; 0.0012207 μM; replicates
[8] = Calu-3; 0.00488281 μM; replicates
[9] = Calu-3; 0.0195312 μM; replicates
[10] = Calu-3; 0.078125 μM; replicates

NC(N)=Nc1ccc(C(=O)OCCN2CCN(C(=O)N[C@@H](Cc3ccccc3)C(=O)N[C@H](/C=C/S(=O)(=O)c3ccccc3)CCc3ccccc3)CC2)cc1 [212-148]
Inhibition: Delta/Calu-3 (SARS-CoV-2 Delta variant; 212-148 8 μM; Fig. 5e): 89.60% and 87.76% | Inhibition: Delta/Calu-3 (SARS-CoV-2 Delta variant; 212-148 40 μM; Fig. 5e): 98.01% | Selectivity index (SI = CC50/EC50) (SARS-CoV-2 Delta variant; Calu-3; Delta): 1,476 | block of viral replication in TCID50 assay (in words) (SARS-CoV-2 Delta variant; Calu-3; delta strain or omicron strain BA.2 (Fig. 5e)): completely blocked | inhibition at 8 µM (SARS-CoV-2 Delta variant; Severe acute respiratory syndrome coronavirus 2, Calu-3, 212-148 8 μM; Fig. 5e; read-out: Inhibition: Delta/Calu-3): 85.5% | inhibition at 40 µM (SARS-CoV-2 Delta variant; Severe acute respiratory syndrome coronavirus 2, Calu-3, 212-148 40 μM; Fig. 5e; read-out: Inhibition: Delta/Calu-3): 96.1% | inhibition at 200 µM (SARS-CoV-2 Delta variant; Severe acute respiratory syndrome coronavirus 2, Calu-3, 212-148 200 μM; Fig. 5e): 100% | EC50 (SARS-CoV-2 Delta variant; [2]): 235 nM | Inhibition: BA.2/Calu-3 ([1]; 212-148 0.00256 μM, Fig. 5e): 7.11% | Inhibition: BA.2/Calu-3 ([1]; 212-148 0.064 μM, Fig. 5e): 29.70% and 52.65% | Inhibition: BA.2/Calu-3 ([1]; 212-148 8 μM, Fig. 5e): 88.58% | Selectivity index (SI = CC50/EC50) ([1]; Calu-3, Omicron BA.2): 5,391 | inhibition at 8 µM ([1]; Severe acute respiratory syndrome coronavirus 2, Calu-3, 212-148 8 μM, Fig. 5e): 85.9% | inhibition at 40 µM ([1]; Severe acute respiratory syndrome coronavirus 2, Calu-3, 212-148 40 μM, Fig. 5e): 99.4% | EC50 [1, 3]: 64.4 nM

CN(C)C(=O)COC(=O)Cc1ccc(OC(=O)c2ccc(NC(=N)N)cc2)cc1 [Camostat]
Inhibition: Delta (SARS-CoV-2 Delta variant; 0.078125 µM): 31.59% and 52.79% | Inhibition: Delta (SARS-CoV-2 Delta variant; 0.3125 µM): 64% | Inhibition: Delta (SARS-CoV-2 Delta variant; 1.25 µM): 96.40% | Inhibition: Delta (SARS-CoV-2 Delta variant; 5 µM): 92.99% | Inhibition: Delta (SARS-CoV-2 Delta variant; 20 µM): 91.24% | EC50 (SARS-CoV-2 Delta variant; [4]): 109 nM | inhibition at 0.3125 µM (SARS-CoV-2 Delta variant; [5]): 53.9% | inhibition at 1.25 µM (SARS-CoV-2 Delta variant; [5]): 95.4% | inhibition at 5 µM (SARS-CoV-2 Delta variant; [5]): 92.4% | inhibition at 20 µM (SARS-CoV-2 Delta variant; [5]): 88.9%

CCOC(=O)C1OC1C(=O)NC(CC(C)C)C(=O)NCCC(C)C (centres unmarked) [E64d]
Inhibition: Omicron BA.2 ([1]; 0.0411523 µM): -1.22% | Inhibition: Omicron BA.2 ([1]; 0.123457 µM): 20.89% and 27.12% | Inhibition: Omicron BA.2 ([1]; 0.37037 µM): 68.35% and 58.49% | Inhibition: Omicron BA.2 ([1]; 1.11111 µM): 89.97% and 78.59% | Inhibition: Omicron BA.2 ([1]; 3.33333 µM): 93.67% and 90.37% | Inhibition: Omicron BA.2 ([1]; 10 µM): 97.22% and 98.95% | EC50 [1, 3]: 240 nM | EC50 [1, 6]: 227 nM

CCOC(=O)c1ccc(OC(=O)CCCCCNC(=N)N)cc1 [Gabexate]
Inhibition: Delta (SARS-CoV-2 Delta variant; [7]): 14.57% and 29.88% | Inhibition: Delta (SARS-CoV-2 Delta variant; [8]): -54.36% and -37.95% | Inhibition: Delta (SARS-CoV-2 Delta variant; [9]): -64.93% and -37.95% | Inhibition: Delta (SARS-CoV-2 Delta variant; [10]): 31.59% and -7.79% | Inhibition: Delta (SARS-CoV-2 Delta variant; Calu-3; 0.3125 μM; replicates): 39.67% | Inhibition: Delta (SARS-CoV-2 Delta variant; Calu-3; 1.25 μM; replicates): -34.59% and 12.43% | Inhibition: Delta (SARS-CoV-2 Delta variant; Calu-3; 5 μM; replicates): 64.87% and -37.95% | Inhibition: Delta (SARS-CoV-2 Delta variant; Calu-3; 20 μM; replicates): -11.09% and 39.67% | inhibitory efficacy (in words) (SARS-CoV-2 Delta variant; Calu-3; Delta): negligible | inhibition at 0.3125 µM (SARS-CoV-2 Delta variant; Severe acute respiratory syndrome coronavirus 2, Calu-3, Calu-3; 0.3125 μM; replicates; read-out: Inhibition: Delta): 53.9% | EC50 (SARS-CoV-2 Delta variant; [2]): > 20000 nM

CN1CCN(C(=O)N[C@@H](Cc2ccccc2)C(=O)N[C@H](/C=C/S(=O)(=O)c2ccccc2)CCc2ccccc2)CC1 [K777]
Inhibition: Delta (SARS-CoV-2 Delta variant; Calu-3; 0.00256 μM; replicates): -6.46e-6% and 5.80% and -22.49% | Inhibition: Delta (SARS-CoV-2 Delta variant; Calu-3; 0.0128 μM; replicates): 16.53% (2×) and 0.45% | Inhibition: Delta (SARS-CoV-2 Delta variant; Calu-3; 0.064 μM; replicates): 24.66% (2×) and 0.45% | Inhibition: Delta (SARS-CoV-2 Delta variant; Calu-3; 8 μM; replicates): 82.03% | Inhibition: Delta (SARS-CoV-2 Delta variant; Calu-3; 40 μM; replicates): 97.04% | inhibition at 8 µM (SARS-CoV-2 Delta variant; Severe acute respiratory syndrome coronavirus 2, Calu-3, Calu-3; 8 μM; replicates; read-out: Inhibition: Delta): 85.5% | inhibition at 40 µM (SARS-CoV-2 Delta variant; Severe acute respiratory syndrome coronavirus 2, Calu-3, Calu-3; 40 μM; replicates; read-out: Inhibition: Delta): 98% | EC50 (SARS-CoV-2 Delta variant; [2]): 638 nM | Inhibition: Omicron BA.2 ([1]; Calu-3, 0.00457247 μM, rep1-rep2): -0.32% and 3.09% | Inhibition: Omicron BA.2 ([1]; Calu-3, 0.123457 μM, rep1-rep2): 90.17% | Inhibition: Omicron BA.2 ([1]; Calu-3, 0.37037 μM, rep1-rep2): 90.95% | Inhibition: Omicron BA.2 ([1]; Calu-3, 1.11111 μM, rep1-rep2): 85.59% | Inhibition: Omicron BA.2 ([1]; Calu-3, 3.33333 μM, rep1-rep2): 91.43% | Inhibition: Omicron BA.2 ([1]; Calu-3, 10 μM, rep1-rep2): 91.43% | inhibition at 0.123457 µM ([1]; Severe acute respiratory syndrome coronavirus 2, Calu-3, Calu-3, 0.123457 μM, rep1-rep2): 70.6% | inhibition at 0.37037 µM ([1]; Severe acute respiratory syndrome coronavirus 2, Calu-3, Calu-3, 0.37037 μM, rep1-rep2): 87.7% | inhibition at 1.11111 µM ([1]; Severe acute respiratory syndrome coronavirus 2, Calu-3, Calu-3, 1.11111 μM, rep1-rep2): 97.1% | inhibition at 3.33333 µM ([1]; Severe acute respiratory syndrome coronavirus 2, Calu-3, Calu-3, 3.33333 μM, rep1-rep2): 98% | inhibition at 10 µM ([1]; Severe acute respiratory syndrome coronavirus 2, Calu-3, Calu-3, 10 μM, rep1-rep2): 99.2% | EC50 [1, 3]: 14 nM | EC50 [1, 6]: 77.7 nM

N=C(N)c1ccc2cc(OC(=O)c3ccc(N=C(N)N)cc3)ccc2c1 [Nafamostat]
Inhibition: Delta (SARS-CoV-2 Delta variant; 0.00128 µM): -1.10% and 5.80% and -6.46e-6% | Inhibition: Delta (SARS-CoV-2 Delta variant; 20 µM): 99.61% | EC50 (SARS-CoV-2 Delta variant; [4]): 26.3 nM | inhibition at 0.8 µM (SARS-CoV-2 Delta variant; [5]): 98.8% | inhibition at 4 µM (SARS-CoV-2 Delta variant; [5]): 98.6% | inhibition at 20 µM (SARS-CoV-2 Delta variant; [5]): 99.8% | inhibition at […] (SARS-CoV-2 Delta variant; [5]): 90.6% and 87.8%

CC(C)(NS(=O)(=O)c1ccc2c(Cl)cnc(N=C(N)N)c2c1)C(=O)O [UK-371804]
Inhibition: Delta (SARS-CoV-2 Delta variant; [7]): -13.87% and -11.09% | Inhibition: Delta (SARS-CoV-2 Delta variant; [8]): -7.79% and -36.72% | Inhibition: Delta (SARS-CoV-2 Delta variant; [9]): -13.87% and -11.09% | Inhibition: Delta (SARS-CoV-2 Delta variant; [10]): 5.76% | Inhibition: Delta (SARS-CoV-2 Delta variant; Calu-3; 0.3125 μM; replicates): 29.88% and 14.57% | Inhibition: Delta (SARS-CoV-2 Delta variant; Calu-3; 1.25 μM; replicates): 77.84% | Inhibition: Delta (SARS-CoV-2 Delta variant; Calu-3; 5 μM; replicates): 90.58% | Inhibition: Delta (SARS-CoV-2 Delta variant; Calu-3; 20 μM; replicates): 90.58% | Selectivity index (SI = CC50/EC50) (SARS-CoV-2 Delta variant; Calu-3; Delta): 405 | inhibition at 0.078125 µM (SARS-CoV-2 Delta variant; Severe acute respiratory syndrome coronavirus 2, Calu-3, Calu-3; 0.078125 μM; replicates): 7.48% | inhibition at 1.25 µM (SARS-CoV-2 Delta variant; Severe acute respiratory syndrome coronavirus 2, Calu-3, Calu-3; 1.25 μM; replicates; read-out: Inhibition: Delta): 77.3% | inhibition at 5 µM (SARS-CoV-2 Delta variant; Severe acute respiratory syndrome coronavirus 2, Calu-3, Calu-3; 5 μM; replicates; read-out: Inhibition: Delta): 88.6% | inhibition at 20 µM (SARS-CoV-2 Delta variant; Severe acute respiratory syndrome coronavirus 2, Calu-3, Calu-3; 20 μM; replicates; read-out: Inhibition: Delta): 93% | EC50 (SARS-CoV-2 Delta variant; [2]): 425 nM
